Measured values published in PubChem BioAssay (NCI).
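Test compounds were applied to cells in 96-well plates for 48 hours at 5 doses. The concentration for 50% growth inhibition is given as GI50. The concentration for full growth arrest is given as TGI.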

Columns and labels:
Assay in all cases: NCI tumour cell line growth inhibition, 48 h
[1] = tested on: SF-295 CNS
[2] = tested on: SF-268 CNS
[3] = tested on: SF-539 CNS
[4] = tested on: CAKI-1 renal
[5] = tested on: MOLT-4 leukemia
[6] = tested on: PC-3 prostate
[7] = tested on: UO-31 renal
[8] = tested on: NCI-H226 lung
[9] = tested on: U251 CNS
[10] = tested on: EKVX NSCLC

Row | Structure (SMILES) | GI50 [1] [µM] | TGI [1] [µM] | GI50 [2] [µM] | TGI [2] [µM] | GI50 [3] [µM] | TGI [3] [µM] | GI50 [4] [µM] | TGI [4] | GI50 [5] [µM] | TGI [5] [µM] | GI50 [6] [µM] | TGI [6] [µM] | GI50 [7] [µM] | TGI [7] [µM] | GI50 [8] [µM] | TGI [8] | GI50 [9] [µM] | TGI [9] [µM] | TGI [10] [µM] | GI50 [10] [µM]
1 | NC1=NC(=O)/C(=C/c2ccc3ncccc3c2)S1 | > 25 | > 25 | > 25 | > 25 | > 25 | > 25 | > 25 | > 25 µM | > 25 | > 25 | > 25 | > 25 | > 25 | > 25 | > 25 | > 25 µM | > 25 | > 25 | – | –
2 | COC(=O)C1C(=O)O[C@@H](c2ccc(OC)c(OC)c2OC)C1C(=O)OC (mixture of isomers) | – | > 100 | – | > 100 | – | > 100 | – | > 100 µM | – | > 100 | – | – | – | > 100 | – | > 100 µM | – | > 100 | > 100 | –
3 | CCOc1ccc2c(c1)CN(Cc1ccc(Cl)cc1)CO2 | 13 | 27.9 | 28.1 | > 100 | 15.8 | 32.4 | 16.3 | 43.2 µM | 19.3 | 67.5 | 27.9 | > 100 | 8.82 | 43.8 | 30.3 | > 100 µM | 16.1 | 33.2 | – | –
4 | COc1cccc(C2=C(c3cn(C)c4cc(F)ccc34)C(=O)NC2=O)c1 | > 18.3 | > 25 | > 22.2 | > 25 | > 25 | > 25 | > 13.4 | > 25 µM | 11.1 | > 25 | 12.5 | > 25 | 9.19 | > 25 | > 18.8 | > 25 µM | > 17.2 | > 25 | – | –
5 | OCc1ccc(N2CCc3cc(F)ccc3C2)cc1Cl | 0.0449 | 13.9 | 15.2 | 29.9 | 16.1 | 30.2 | 1.34 | 13.6 µM | 15 | 47.4 | 11 | 27.6 | 1.7 | 18.4 | – | – | 0.0933 | 14 | – | –
6 | CCCCCCCCCCSC(=O)NC | – | > 100 | – | > 100 | – | > 100 | – | > 100 µM | – | 46.5 | – | – | – | > 100 | – | – | – | 68.4 | 71.4 | –
7 | COc1ccc(-c2ccccc2)c2[nH]c3c(c12)CCNC3=O | – | > 100 | – | > 100 | – | > 100 | – | > 100 µM | – | > 100 | – | – | – | > 100 | – | > 100 µM | – | > 100 | > 100 | –
8 | CC(=O)[CH-]C(=O)c1ccccc1.CC(=O)[CH-]C(=O)c1ccccc1.CC(C)CCC[C@H](C)C1CCC2[C@@H]3CC=C4C[C@@H]([O-])CC[C@]4(C)C3CC[C@@]21C.CC(C)CCC[C@H](C)C1CCC2[C@@H]3CC=C4C[C@@H]([O-])CC[C@]4(C)C3CC[C@@]21C.Cl.[Ti+4] (stereo partly specified) | > 25 | > 25 | > 25 | > 25 | > 25 | > 25 | > 25 | > 25 µM | > 25 | > 25 | – | – | > 25 | > 25 | > 25 | > 25 µM | > 25 | > 25 | > 25 | > 25
9 | CN(NC1OC(CO)C(O)C(O)C1O)c1ccccc1 (stereo unspecified) | – | > 100 | – | > 100 | – | – | – | > 100 µM | – | > 100 | – | – | – | – | – | > 100 µM | – | > 100 | – | –
10 | O=C(Nc1cccc(-n2cc(-c3ccncc3)c(-c3ccc(O)c(Cl)c3)n2)c1)c1cc(C(F)(F)F)cc(C(F)(F)F)c1 | 2.14 | 34.2 | 7.26 | > 50 | 4.78 | 38.9 | 2.52 | > 50 µM | 2.88 | > 50 | 2.17 | > 50 | 4.15 | > 50 | 10.3 | > 50 µM | 2.54 | > 50 | – | –
11 | CC(c1ccccc1)[C@@H](C(=O)Nc1ccc(I)cc1F)N1C(=O)N[C@H](c2ccc(OC[C@H](O)CO)cc2)C1=O (stereo partly specified) | > 25 | > 25 | 15.2 | > 25 | 15.5 | > 25 | 16.2 | > 25 µM | 12.5 | > 25 | > 15.4 | > 25 | 9.91 | > 25 | 14.5 | > 25 µM | 7.86 | > 25 | – | –
12 | CC(=O)OC(C)(C)/C=C/C(=O)[C@](C)(O)[C@H]1[C@H](O)C[C@@]2(C)[C@@H]3CC=C4[C@@H](C=C(O)C(=O)C4(C)C)[C@]3(C)C(=O)C[C@]12C | – | – | – | – | – | – | – | 44 nM [middle of 4 runs] | – | – | 0.0408 | 1.48 | – | – | – | 93.7 nM [middle of 4 runs] | – | – | – | –
13 | O=C(CO[N+](=O)[O-])OC/C=C/c1ccccc1 | – | > 100 | – | > 100 | – | > 100 | – | > 100 µM | – | > 100 | – | – | – | > 100 | – | > 100 µM | – | > 100 | > 100 | –
14 | CN(C)CCn1cnc2ncccc2c1=O | – | > 100 | – | > 100 | – | > 100 | – | > 100 µM | – | > 100 | – | – | – | > 100 | – | > 100 µM | – | > 100 | > 100 | –
15 | O=c1c2ccccc2nc(-c2ccccc2Cl)n1-c1nnc(C(F)(F)F)s1 | 2.44 | 9.11 | 4.36 | > 100 | 3.21 | 13 | 2.82 | 10.1 µM | 3.99 | 20.4 | 2.76 | 14.1 | 2.75 | 11.6 | 2.4 | 8.55 µM | 2.46 | 12.9 | – | –
16 | CC1CCC(=O)C(C(O)CC2CC(=O)N(c3ccccc3)C(=O)C2)C1 (stereo unspecified) | – | > 100 | – | > 100 | – | > 100 | – | > 100 µM | – | > 100 | – | – | – | > 100 | – | > 100 µM | – | > 100 | > 100 | –
17 | COC1OC(CBr)C(OC(=O)c2ccccc2)C(OS(=O)(=O)c2ccc(C)cc2)C1Br (stereo unspecified) | – | > 100 | – | > 100 | – | > 100 | – | > 100 µM | – | > 100 | – | – | – | > 100 | – | – | – | > 100 | > 100 | –
18 | CC(=O)Nc1ccc(/C=C2\N=C(c3ccccc3)OC2=O)cc1 | – | > 100 | – | > 100 | – | – | – | – | – | > 100 | – | – | – | > 100 | – | > 100 µM | – | > 100 | > 100 | –
19 | CN(C)C(=O)NC(=S)N(C)C | – | > 100 | – | > 100 | – | > 100 | – | > 100 µM | – | > 100 | – | – | – | > 100 | – | > 100 µM | – | 14 | > 100 | –
20 | O=C1C2c3[nH]c4ccccc4c3C3CCCCCC3C2C(=O)N1c1ccccc1 (stereo unspecified) | – | > 65.5 | – | 99.8 | – | > 52 | – | > 100 µM | – | 47.7 | – | – | – | 99.4 | – | > 64.3 µM | – | > 45.6 | > 100 | –
21 | Clc1ccc2ncc(-c3cccc(NC4CNC4)n3)n2c1 | 3.34 | 20.2 | 8.7 | 33 | 2.92 | 17.3 | 4.51 | 84.1 µM | 5.03 | > 100 | 4.55 | 80.9 | 5.12 | 88.5 | – | – | 6.85 | 48.7 | – | –
22 | CCOc1ccc(OCC)c([P+](c2ccccc2)(c2ccccc2)c2ccccc2)c1 | – | 6.38 | – | 24.4 | – | 8.77 | – | 6.1 µM | – | – | – | – | – | – | – | 3.24 µM | – | 10.8 | 16.5 | –
23 | CC(=O)OCC1OC(OCc2ccccc2)C(Br)C(OC(C)=O)C1OC(C)=O (stereo unspecified) | – | > 100 | – | > 100 | – | > 100 | – | > 100 µM | – | > 100 | – | – | – | – | – | > 100 µM | – | > 100 | – | –
24 | CC1=C(C(=O)NCc2ccccc2)C(c2ccccc2C)C(C(=O)NCc2ccccc2)=C(C)N1 | – | > 85.5 | – | 57.6 | – | 48.8 | – | > 100 µM | – | > 100 | – | – | – | > 93.3 | – | > 84.6 µM | – | 68.3 | > 100 | –
25 | Cc1cc(=O)n(-c2c(C)cccc2Cl)c(/C=C(\O)c2ccncc2)n1 | – | > 100 | – | > 100 | – | > 100 | – | > 100 µM | – | > 100 | – | – | – | > 100 | – | > 100 µM | – | > 100 | > 100 | –
26 | COc1ccc(S(=O)(=O)N[C@H](C(=O)O)c2ccccc2)cc1 | – | > 100 | – | > 100 | – | > 100 | – | > 100 µM | – | > 100 | – | – | – | > 100 | – | > 100 µM | – | > 100 | > 100 | –
27 | O=C(N/C(=C\c1ccccc1Cl)c1nc2ccccc2[nH]1)c1ccccc1 | – | 43.4 | – | > 100 | – | > 100 | – | > 100 µM | – | > 100 | – | – | – | 44.8 | – | – | – | > 100 | 88 | –
28 | CCOC(=O)C(NO)C(Sc1ccccc1)c1ccc(OC)cc1 (stereo unspecified) | – | > 100 | – | > 100 | – | > 100 | – | – | – | > 100 | – | – | – | > 100 | – | > 100 µM | – | > 100 | > 100 | –
